In ChEMBL document CHEMBL3232901, “Design, synthesis, and pharmacological evaluation of fluorinated tetrahydrouridine derivatives as inhibitors of cytidine deaminase” (J Med Chem, 2014):

Assays:
[1] = Chemical stability in simulated gastric fluid assessed as compound remaining after 10 mins at pH 1.2 at 37 degC; assay type: ADME, physicochemical, Stomach; settings: read-out: Stability
[2] = Chemical stability in simulated gastric fluid assessed as compound remaining after 2 hrs at pH 1.2 at 37 degC; assay type: ADME, physicochemical, Stomach; settings: read-out: Stability

remaining at 10 min [1]: 50%
remaining at 2 h [2]: 15%
SMILES: O=C1NC(O)CCN1[C@@H]1O[C@H](CO)[C@@H](O)[C@H]1O (mixture of isomers) [TETRAHYDROURIDINE]
